According to patent publication US4515727A, “Allene containing arachidonic acid derivatives” (SYNTEX (U.S.A.) Inc., priority 1982, dated 1985):

Legend:
Cyclooxygenase = target: T1, Cyclooxygenase (Homo sapiens, UniProt P23219); assay: Inhibition of cyclooxygenase activity in the human PMN arachidonic acid incubation; type: cell-based; settings: test compound 1×10^-4 m; human PMNs, 37° C., 5 minutes; arachidonic acid 1-C14 1×10^-4 M
T1 construct: The PMNs were prepared from 200-300 ml of heparinized blood of healthy donors; endogenous in cells; host or cells: human polymorphonuclear leukocytes from heparinized blood of healthy donors (intact cells, more than 98% pure)
Experimental: (§1) Assay for Inhibition of Lipoxygenase Activity By Human Polymorphonuclear Leukocytes (PMNs)
(§2) 1. Preparation of the cells:
(§3) The PMNs were prepared from 200-300 ml of heparinized blood of healthy donors not receiving any medication for at least 7 days using Ficoll-Hypaque gradients. In general, PMNs were greater than 98% pure and their viability was assessed by dye-exclusion to be better than 95%. The cells were suspended in phosphate buffered saline containing 1.0 mM CaCl2 (PH 7.4) and 0.1 ovalbumin, and used within 30 minutes.
Incubations were carried out at 37° C. for 5 minutes in a total volume of 0.2 ml. Arachidonic acid 1-C^14 (1×10^-4 M unless otherwise indicated, and approximately 300,000 cpm) was added to a suspension of cells (ca 5×10^6) to initiate the reaction. Prior to the addition of above substrate, the test substances were added to the cells at appropriate concentrations and pre-incubated at 37° C. for 5 minutes. In general, stock solutions of test substances were prepared in ethanol (or other appropriate solvents) and diluted with either incubation buffer or water. […] Boiled enzyme blanks and controls containing no test compound were always included. The incubations were terminated by the addition of 0.6 ml of methanol, vortexed and kept on ice for 30 minutes. […] The residue was carefully dissolved in […] of the mobile phase (methanol 75:H2 O 25:acetic acid 0.01) and a 10 microliter aliquot counted to estimate the recoveries. An aliquot of an extract from a control tube was injected into a Waters μBondpack C-18 reverse phase column and the retention times of cycloxygenase and lipoxygenase products determined both by OD measurement at 244 nM and by collecting 1 min. fractions and determining radioactivity. Based on this information, programmed collection of fractions (total of 6) using a fraction collector was made with each of the extracts injected into the column by an autoinjector (WISP) and the fractions counted for radioactivity in a Packard Liquid Scintillation Spectrometer. […]

Lipoxygenase = target: T2, Lipoxygenase (Homo sapiens, UniProt P09917); assay: Inhibition of lipoxygenase activity by human polymorphonuclear leukocytes (PMNs); type: cell-based; settings: test compound 1×10^-4 m, 37° C., 5 minutes, arachidonic acid 1-C14 1×10^-4 M; for Percent Inhibition Lipoxygenese Act. 5-HETE: product 5-hydroxy-7,9,11,14-eicosatetraenoic acid; for Percent Inhibition Lipoxygenese Act. LTB4: product Leukotriene B4
T2 construct: The PMNs were prepared from 200-300 ml of heparinized blood of healthy donors; endogenous in cells; host or cells: human polymorphonuclear leukocytes from heparinized blood of healthy donors (intact cells)
T2 sequence (P09917 1-674): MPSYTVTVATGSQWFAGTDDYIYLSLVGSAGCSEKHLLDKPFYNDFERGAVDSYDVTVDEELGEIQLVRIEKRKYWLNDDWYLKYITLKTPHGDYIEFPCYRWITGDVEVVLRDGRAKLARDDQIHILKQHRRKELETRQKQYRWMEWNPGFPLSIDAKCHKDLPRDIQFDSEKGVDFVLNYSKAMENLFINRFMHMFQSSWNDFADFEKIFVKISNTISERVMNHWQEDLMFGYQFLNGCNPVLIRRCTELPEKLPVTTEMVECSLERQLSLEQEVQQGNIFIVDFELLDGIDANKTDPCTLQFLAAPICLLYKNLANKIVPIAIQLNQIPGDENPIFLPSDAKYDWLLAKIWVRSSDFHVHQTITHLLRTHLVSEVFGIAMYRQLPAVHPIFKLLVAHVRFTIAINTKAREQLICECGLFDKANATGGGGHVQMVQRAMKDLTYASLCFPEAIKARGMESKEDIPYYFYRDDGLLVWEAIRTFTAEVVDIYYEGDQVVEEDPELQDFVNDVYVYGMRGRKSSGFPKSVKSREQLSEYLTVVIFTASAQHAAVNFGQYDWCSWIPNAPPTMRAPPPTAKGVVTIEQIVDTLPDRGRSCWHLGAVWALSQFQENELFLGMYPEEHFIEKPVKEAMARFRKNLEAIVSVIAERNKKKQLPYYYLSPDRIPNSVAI
Experimental: as §1, §2, §3
Incubations were carried out at 37° C. for 5 minutes in a total volume of 0.2 ml. Arachidonic acid 1-C^14 (1×10^-4 M unless otherwise indicated, and approximately 300,000 cpm) was added to a suspension of cells (ca 5×10^6) to initiate the reaction. Prior to the addition of above substrate, the test substances were added to the cells at appropriate concentrations and pre-incubated at 37° C. for 5 minutes. In general, stock solutions of test substances were prepared in ethanol (or other appropriate solvents) and diluted with either incubation buffer or water. […] Boiled enzyme blanks and controls containing no test compound were always included. The incubations were terminated by the addition of 0.6 ml of methanol, vortexed and kept on ice for 30 minutes. An internal standard (5-hydroxy-7,9,11,14-eicosatetraenoic acid methyl ester) and 1.6 ml of deionized water was added, vortexed, centrifuged, supernatants decanted and kept in the freezer overnight. Extraction and purification of the arachidonic acid and lipoxygenase products were carried out using "Baker" disposable C18 extraction columns (1 ml capacity). The columns were prewashed with methanol (2.0 ml) followed by deionized water (2 ml). After most of the solvent was removed, 2.0 ml of the supernatant was applied to the extraction column and the solvent was allowed to flow through. The column was then washed with 5 ml of deionized water and the eludate was discarded. The column was then eluted with 2.0 ml of methanol and the eludate was forced through by N2, collected and the solvent removed in a vacuum oven overnight. The residue was carefully dissolved in […] of the mobile phase (methanol 75:H2 O 25:acetic acid 0.01) and a 10 microliter aliquot counted to estimate the recoveries. An aliquot of an extract from a control tube was injected into a Waters μBondpack C-18 reverse phase column and the retention times of cycloxygenase and lipoxygenase products determined both by OD measurement at 244 nM and by collecting 1 min. fractions and determining radioactivity. Based on this information, programmed collection of fractions (total of 6) using a fraction collector was made with each of the extracts injected into the column by an autoinjector (WISP) and the fractions counted for radioactivity in a Packard Liquid Scintillation Spectrometer.
Using this procedure the following compounds were tested at a concentration of 1×10^-4 m and found to have the denoted lipoxygenase and cycloxygenase activity: […]

T1 sequence (P23219 24-599): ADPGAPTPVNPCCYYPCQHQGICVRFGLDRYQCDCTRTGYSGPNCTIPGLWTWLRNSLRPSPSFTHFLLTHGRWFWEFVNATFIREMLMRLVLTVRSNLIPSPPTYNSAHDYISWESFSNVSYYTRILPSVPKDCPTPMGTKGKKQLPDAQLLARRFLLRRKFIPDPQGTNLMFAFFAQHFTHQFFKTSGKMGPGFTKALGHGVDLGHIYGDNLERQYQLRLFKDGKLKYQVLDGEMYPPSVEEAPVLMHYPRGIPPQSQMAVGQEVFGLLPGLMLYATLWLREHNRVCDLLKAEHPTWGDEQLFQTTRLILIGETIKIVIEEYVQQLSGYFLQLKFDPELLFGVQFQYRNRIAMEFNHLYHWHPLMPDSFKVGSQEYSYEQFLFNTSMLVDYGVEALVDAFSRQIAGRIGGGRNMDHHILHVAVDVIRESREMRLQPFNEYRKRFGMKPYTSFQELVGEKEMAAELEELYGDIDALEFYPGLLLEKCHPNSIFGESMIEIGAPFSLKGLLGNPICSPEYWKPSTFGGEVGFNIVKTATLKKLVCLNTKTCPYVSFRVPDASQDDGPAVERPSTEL

CCCCC/C=C\C/C=C\C/C=C\CC=C=CCCC(=O)O [4,5,8Z,11Z,14Z-eicosatetraenoic acid]
Percent Inhibition Cyclooxygenese Act. Total "PGs" (Cyclooxygenase): 9%
Percent Inhibition Lipoxygenese Act. 5-HETE (Lipoxygenase): 9%
Percent Inhibition Lipoxygenese Act. LTB4 (Lipoxygenase): 20%

CCCCCCCCCCCSCC=C=CCCC(=O)O [8-thianonadeca-4,5-dienoic acid]
Percent Inhibition Cyclooxygenese Act. Total "PGs" (Cyclooxygenase): 22%
Percent Inhibition Lipoxygenese Act. 5-HETE (Lipoxygenase): 46%
Percent Inhibition Lipoxygenese Act. LTB4 (Lipoxygenase): 37%

CCCCCCCCCCC/C=C\CC=C=CCCC(=O)O [4,5,8Z-eicosatrienoic acid]
Percent Inhibition Cyclooxygenese Act. Total "PGs" (Cyclooxygenase): 7%
Percent Inhibition Lipoxygenese Act. 5-HETE (Lipoxygenase): 42%
Percent Inhibition Lipoxygenese Act. LTB4 (Lipoxygenase): 47%
